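Test compounds were applied to cells in 96-well plates for 48 hours at 5 doses. GI50 = concentration required for 50% inhibition of growth.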 Active and inactive are the calls of the source. Rule as the data show it: active = GI50 up to about 1.1 µM and inactive = higher.
Tests used:
Experiment in all cases: NCI anticancer screen, dose series, 48 h
[1] = test system: Malme-3M
[2] = test system: MDA-N
[3] = test system: CCRF-CEM
[4] = test system: M14
[5] = test system: SK-MEL-2
[6] = test system: MDA-MB-435
[7] = test system: NCI-H23
[8] = test system: NCI-H226
[9] = test system: Hs-578T
[10] = test system: EKVX
[11] = test system: RXF 393
[12] = test system: OVCAR-8
[13] = test system: A549
[14] = test system: TK-10
[15] = test system: T47D
[16] = test system: UACC-257
[17] = test system: HOP-62
[18] = test system: IGROV-1
[19] = test system: SF-268
[20] = test system: SK-MEL-28
[21] = test system: SK-MEL-5
[22] = test system: SF-539
[23] = test system: SF-295
[24] = test system: SR
[25] = test system: HT-29
[26] = test system: HCT-15
[27] = test system: SW-620
[28] = test system: NCI-H460
[29] = test system: LOX IMVI
[30] = test system: RPMI-8226
[31] = test system: 786-0
[32] = test system: U-251
[33] = test system: UO-31
[34] = test system: OVCAR-5
[35] = test system: OVCAR-3
[36] = test system: K562
[37] = test system: NCI-H522
[38] = test system: PC-3
[39] = test system: ACHN
[40] = test system: BT-549
[41] = test system: SN12C
[42] = test system: KM12
[43] = test system: SK-OV-3
[44] = test system: UACC-62
[45] = test system: A498
[46] = test system: SNB-19
[47] = test system: MDA-MB-231
[48] = test system: HCC 2998
[49] = test system: DU-145
[50] = test system: MCF7
[51] = test system: NCI/ADR-RES
[52] = test system: CAKI-1
[53] = test system: OVCAR-4
[54] = test system: HCT-116
[55] = test system: COLO 205
[56] = test system: MOLT-4
[57] = test system: HL-60
[58] = test system: SNB-75

CC1CNc2ccccc2N=C1NN (stereo unspecified)
GI50 [1]: > 100 µM (inactive)
GI50 [2]: > 100 µM (inactive)
GI50 [3]: 22.7 µM (inactive)
GI50 [4]: > 100 µM (inactive)
GI50 [5]: > 100 µM (inactive)
GI50 [6]: > 100 µM (inactive)
GI50 [7]: > 100 µM (inactive)
GI50 [8]: > 100 µM (inactive)
GI50 [9]: > 100 µM (inactive)
GI50 [10]: > 100 µM (inactive)
GI50 [11]: > 100 µM (inactive)
GI50 [12]: > 100 µM (inactive)
GI50 [13]: > 100 µM (inactive)
GI50 [14]: > 100 µM (inactive)
GI50 [15]: > 100 µM (inactive)
GI50 [16]: > 100 µM (inactive)
GI50 [17]: > 100 µM (inactive)
GI50 [18]: > 100 µM (inactive)
GI50 [19]: > 100 µM (inactive)
GI50 [20]: > 100 µM (inactive)
GI50 [21]: > 100 µM (inactive)
GI50 [22]: > 100 µM (inactive)
GI50 [23]: > 100 µM (inactive)
GI50 [24]: > 100 µM (inactive)
GI50 [25]: > 100 µM (inactive)
GI50 [26]: > 100 µM
GI50 [27]: > 100 µM (inactive)
GI50 [28]: > 100 µM (inactive)
GI50 [29]: > 69.8 µM (inactive)
GI50 [30]: > 36.5 µM (inactive)
GI50 [31]: > 100 µM (inactive)
GI50 [32]: > 100 µM (inactive)
GI50 [33]: > 100 µM (inactive)
GI50 [34]: > 100 µM (inactive)
GI50 [35]: > 100 µM (inactive)
GI50 [36]: > 100 µM (inactive)
GI50 [37]: > 100 µM (inactive)
GI50 [38]: > 100 µM (inactive)
GI50 [39]: > 100 µM (inactive)
GI50 [40]: > 100 µM (inactive)
GI50 [41]: > 100 µM (inactive)
GI50 [42]: > 100 µM (inactive)
GI50 [43]: > 100 µM (inactive)
GI50 [44]: > 100 µM (inactive)
GI50 [45]: > 100 µM (inactive)
GI50 [46]: > 100 µM (inactive)
GI50 [47]: > 100 µM (inactive)
GI50 [48]: > 100 µM (inactive)
GI50 [49]: > 100 µM (inactive)
GI50 [50]: > 100 µM (inactive)
GI50 [51]: > 100 µM (inactive)
GI50 [52]: > 100 µM (inactive)
GI50 [53]: > 100 µM (inactive)
GI50 [54]: > 100 µM (inactive)
GI50 [55]: > 100 µM (inactive)

N#Cc1ccc(-c2nc3c(N)ncnc3o2)cc1
GI50 [2]: > 100 µM (inactive)
GI50 [3]: > 100 µM (inactive)
GI50 [4]: > 100 µM (inactive)
GI50 [5]: > 100 µM (inactive)
GI50 [6]: > 100 µM (inactive)
GI50 [7]: > 100 µM (inactive)
GI50 [8]: > 100 µM (inactive)
GI50 [9]: > 100 µM (inactive)
GI50 [10]: > 100 µM (inactive)
GI50 [11]: > 100 µM (inactive)
GI50 [12]: > 100 µM (inactive)
GI50 [13]: > 100 µM (inactive)
GI50 [14]: > 100 µM (inactive)
GI50 [15]: > 100 µM (inactive)
GI50 [16]: > 100 µM (inactive)
GI50 [17]: 84.7 µM (inactive)
GI50 [18]: > 100 µM (inactive)
GI50 [19]: > 100 µM (inactive)
GI50 [20]: > 100 µM (inactive)
GI50 [21]: > 100 µM (inactive)
GI50 [22]: > 100 µM (inactive)
GI50 [23]: > 100 µM (inactive)
GI50 [24]: > 100 µM (inactive)
GI50 [25]: > 100 µM (inactive)
GI50 [26]: > 100 µM
GI50 [27]: > 100 µM (inactive)
GI50 [28]: > 100 µM (inactive)
GI50 [29]: > 100 µM (inactive)
GI50 [30]: > 100 µM (inactive)
GI50 [31]: 63.8 µM (inactive)
GI50 [33]: > 100 µM (inactive)
GI50 [34]: > 100 µM (inactive)
GI50 [35]: > 100 µM (inactive)
GI50 [36]: > 100 µM (inactive)
GI50 [37]: > 100 µM (inactive)
GI50 [56]: > 100 µM (inactive)
GI50 [38]: > 100 µM (inactive)
GI50 [39]: 75 µM (inactive)
GI50 [40]: > 100 µM (inactive)
GI50 [41]: > 100 µM (inactive)
GI50 [42]: > 100 µM (inactive)
GI50 [44]: > 100 µM (inactive)
GI50 [45]: > 100 µM (inactive)
GI50 [46]: > 100 µM (inactive)
GI50 [47]: > 100 µM (inactive)
GI50 [48]: > 100 µM (inactive)
GI50 [57]: > 100 µM (inactive)
GI50 [49]: > 100 µM (inactive)
GI50 [50]: > 100 µM (inactive)
GI50 [51]: > 100 µM (inactive)
GI50 [52]: > 100 µM (inactive)
GI50 [54]: > 100 µM (inactive)
GI50 [55]: > 100 µM (inactive)

S=c1nc(Nc2ccccc2)c2c3c(sc2[nH]1)CCCC3
GI50 [1]: > 100 µM (inactive)
GI50 [2]: > 100 µM (inactive)
GI50 [5]: > 100 µM (inactive)
GI50 [6]: > 100 µM (inactive)
GI50 [7]: > 100 µM (inactive)
GI50 [8]: > 100 µM (inactive)
GI50 [9]: > 100 µM (inactive)
GI50 [10]: 2.32 µM (inactive)
GI50 [11]: > 100 µM (inactive)
GI50 [12]: > 100 µM (inactive)
GI50 [14]: > 100 µM (inactive)
GI50 [15]: > 100 µM (inactive)
GI50 [16]: > 100 µM (inactive)
GI50 [17]: > 100 µM (inactive)
GI50 [18]: > 100 µM (inactive)
GI50 [19]: > 100 µM (inactive)
GI50 [20]: > 100 µM (inactive)
GI50 [21]: > 100 µM (inactive)
GI50 [23]: > 100 µM (inactive)
GI50 [24]: 8.67 µM (inactive)
GI50 [25]: > 100 µM (inactive)
GI50 [26]: > 100 µM
GI50 [27]: > 100 µM (inactive)
GI50 [28]: > 100 µM (inactive)
GI50 [29]: > 100 µM (inactive)
GI50 [30]: > 100 µM (inactive)
GI50 [31]: > 100 µM (inactive)
GI50 [32]: > 100 µM (inactive)
GI50 [33]: > 100 µM (inactive)
GI50 [34]: > 100 µM (inactive)
GI50 [35]: > 100 µM (inactive)
GI50 [36]: > 100 µM (inactive)
GI50 [37]: 71.4 µM (inactive)
GI50 [56]: > 100 µM (inactive)
GI50 [38]: > 100 µM (inactive)
GI50 [39]: > 100 µM (inactive)
GI50 [40]: > 100 µM (inactive)
GI50 [41]: 56.4 µM (inactive)
GI50 [42]: > 100 µM (inactive)
GI50 [58]: > 100 µM (inactive)
GI50 [44]: > 100 µM (inactive)
GI50 [45]: > 100 µM (inactive)
GI50 [46]: > 100 µM (inactive)
GI50 [47]: > 100 µM (inactive)
GI50 [48]: > 100 µM (inactive)
GI50 [57]: > 100 µM (inactive)
GI50 [49]: > 100 µM (inactive)
GI50 [50]: > 100 µM (inactive)
GI50 [51]: > 100 µM (inactive)
GI50 [52]: > 100 µM (inactive)
GI50 [53]: > 100 µM (inactive)
GI50 [54]: > 100 µM (inactive)
GI50 [55]: > 100 µM (inactive)

From ChEMBL document CHEMBL1201862, “PubChem BioAssay data set” (2004)
